Consider 1 molecule from patent US20240158339A1, “TYRAMINE CONTAINING HYDROXYCINNAMIC ACID AMIDE DERIVATIVES AND METHODS OF USE THEREOF” (Brightseed, Inc., priority 2018, published 2024).

The subject of one series is diet-induced obese mice. As to the kind of experiment: Efficacy in diet-induced obese mice. The format is in vivo. On the procedure:
Alkaline Phosphatase (ALP) Quantitation. Increased levels of ALP in blood are considered indicative of liver function abnormalities. Thus, ALP was assayed in accordance with known methods (Kiselyuk, et al. (2012) Chem. Biol. 19(7):806-818). Briefly, prior to sacrifice, blood was drawn and analyzed using a VetScan blood analyzer, measuring alkaline phosphatase (ALP, IU/L), alanine aminotransferase (ALT, IU/L), gamma glutamyl transferase (GGT, IU/L), bile acids (BA, μmol/L), total bilirubin (TBIL, mg/dL), albumin (ALB, g/dL), blood urea nitrogen (BUN, mg/dL), and cholesterol (CHOL, mg/dL).
Triglyceride (TG) Quantitation. TG quantity was assayed using a Triglyceride Colorimetric Assay Kit (Cayman Chemicals; Ann Arbor, MI) according to the manufacturer's instructions.
Lipid Droplet Size Analysis. All slides were scanned at a magnification of 20× using the Aperio Scanscope FL system (Aperio Technologies Inc.; Vista, CA). The appropriate dyes were assigned and illumination levels were calibrated using a preset procedure; the parameters were saved and applied to all slides. The acquired digital images represented whole tissue sections. Sections were evaluated for image quality. All acquired images were subsequently placed in dedicated project folders, and stored on a designated local server. Selected areas of the slides were selected using Aperio Imagescope (version 12 Aperio Technologies Inc.). For analysis, slides were viewed, whole tissue areas were selected and analyzed using the web-based Image Scope viewer. Slides were quantified using the ‘Color Deconvolution v9’ algorithm for oil redo staining (version 11 Aperio Technologies Inc.). The algorithm was optimized using a preset procedure to maximize the strong red color positive oil droplets signal to noise ratio and the subsequent macro was saved and applied to all slides.
HNF4α Immunostaining in Organ Samples. Samples were harvested from mice, fixed in 4% paraformaldehyde and embedded in paraffin or O.C.T. freezing media (Sakura Finetek; Torrance, CA). Slides of 5 μm thickness were washed four times with PBS and treated with 0.3% Triton™ in PBS for 10 minutes. Antigen retrieval was carried out with CitriSolv™ (Fisher Scientific; Waltham, MA) for 10 minutes in sub-boiling temperature. After washing with PBS for 10 minutes, slides were incubated in blocking solution with 5% normal donkey serum (Jackson Immuno Research; West Grove, PA) for 60 minutes at room temperature. Cells were fixed in 4% paraformaldehyde for 15 minutes on 4° C. and washed with PBS, treated with 0.3% Triton™ in PBS for 10 minutes and blocked as previously described for slide samples.
Primary Antibodies. HNF4α antibodies were used (#sc-6556, Santa Cruz Biotechnology; Santa Cruz, CA and #3113, Cell Signaling Technology; Danvers, MA). For fluorescent imaging, samples were incubated with ALEXA FLOUR® 488 green-fluorescent dye or Rhodamine labeled anti-mouse, rabbit or goat and nuclei were counterstained with DAPI (4′,6-diamidino-2-phenylindole). Controls using secondary antibodies alone were used to ensure specificity of immunostaining. Fluorescently labeled sections were analyzed with a conventional inverted microscope (Olympus, PlanFl 40x/0.60) or with a confocal microscope equipped with a krypton/argon laser.
The experiments were performed to establish feedingand treatment regimens, dosing and administration regimens, as well as to provide evidence of beneficial effects of N-trans-caffeoyltyramine on glucose and lipid homeostasis, hepatic steatosis, -cell function and hepatocyte function. Twelve mice (10 weeks old) were fed a high-fat diet for four weeks to induce obesity. After four weeks, and while on the high-fat diet, six mice were administered 5% DMSO or 120 mg/kg N-trans-caffeoyltyramine twice a day intraperitoneally for 14 days. One hour after the last i.p. injection of DMSO or N-trans-caffeoyltyramine, the animals were sacrificed and blood and organ (liver, kidney, gut and pancreas) samples were collected. […]

In another series the target is T1, HNF4α (Homo sapiens, UniProt P41235).
T1 construct: T6PNE cells (Kiselyuk, et al. (2012) Chem. Biol. 19(7):806-818; Kiselyuk, et al. (2010) J. Biomol; endogenous in cells; host or cells: T6PNE cells
T1 sequence (P41235 1-474): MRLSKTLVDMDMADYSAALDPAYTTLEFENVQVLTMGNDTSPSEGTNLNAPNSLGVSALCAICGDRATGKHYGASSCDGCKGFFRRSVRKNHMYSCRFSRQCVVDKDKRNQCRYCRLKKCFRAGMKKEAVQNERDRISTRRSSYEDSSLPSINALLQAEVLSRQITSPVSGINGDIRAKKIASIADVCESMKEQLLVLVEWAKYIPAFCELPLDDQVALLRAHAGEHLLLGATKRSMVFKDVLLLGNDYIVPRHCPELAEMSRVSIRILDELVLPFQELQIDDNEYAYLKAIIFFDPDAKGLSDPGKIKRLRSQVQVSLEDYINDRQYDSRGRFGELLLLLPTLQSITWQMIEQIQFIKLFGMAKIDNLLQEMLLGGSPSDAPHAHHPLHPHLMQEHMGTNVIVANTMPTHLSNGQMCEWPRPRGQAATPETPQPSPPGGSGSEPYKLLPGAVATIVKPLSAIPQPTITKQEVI
As to the kind of experiment: Insulin promoter activity assay (HNF4α assay) in T6PNE cells. The format is cell-based. The method, then: Insulin Promoter Activity. T6PNE cells (Kiselyuk, et al. (2012) Chem. Biol. 19(7):806-818; Kiselyuk, et al. (2010) J. Biomol. Screen 15(6):663-70) are seeded at 2000 cells per well in 384-well tissue culture plates in the presence of 1 μM tamoxifen and 0.03 mM palmitate. After a 24-hour incubation, a compound of the invention is added to the cells. Forty-eight hours after compound addition, cells are fixed in 4% paraformaldehyde and stained with DAPI. Blue (DAPI) and green (human insulin promoter driving GFP) channels are imaged.
Inhibition of HNF4α GFP Expression. Using the insulin promoter assay described herein, activity of HNF4α was assessed in the presence of BI-6015 (0, 2.5, 5 μM), a known antagonist of HNF4α (Kiselyuk, et al. (2012) Chem. Biol. 19(7):806-818), in combination with N-trans-caffeoyltyramine (0, 5, 10, 20 μM).
Given the role of HNF4α in maintaining a health metabolism in humans, test compounds were screened for activity as HNF4α agonists (either direct or indirect effects). Using a known insulin promoter-reporter assay Kiselyuk and colleagues (2010. J. Biomol. Screen 15(6):663-70) screened a library of compounds for activity to promote insulin activation. […] The OTC promoter is known to be responsive to HNF4α in transient transfection assays (Inoue, et al. (2002) J. Biol. Chem. 277:25257-65).
Plant compounds in the top 10th percentile of similarity to the 18 target structures were selected and compounds predicted to be potential agonists of HNF4α activity given their chemical structural features were screened in the HNF4α assay.

Entries after “also recorded” stand apart in the source; their conditions may differ.

`O=C(/C=C/c1ccc(O)c(O)c1)NCCc1ccc(O)cc1` [N-trans-caffeoyltyramine]: the “lipid accumulation in the liver” value in the series on diet-induced obese mice (120 mg/kg twice a day i.p. for 14 days vs DMSO) is given as “decreased lipid accumulation”. The “lipid droplet sizes in the liver” value with diet-induced obese mice (120 mg/kg twice a day i.p. for 14 days vs DMSO, FIG. 8) was “reduced”. Moreover, the levels of triglycerides entry in the series on diet-induced obese mice (120 mg/kg twice a day i.p. for 14 days vs DMSO, FIG. 10) is on record as “significantly reduced”. The “HNF4α expression in the pancreas” value in the series on diet-induced obese mice (120 mg/kg twice a day i.p. for 14 days vs DMSO, FIG. 11) was “increased”. Further, the “HNF4α expression in intestines” value with diet-induced obese mice (120 mg/kg twice a day i.p. for 14 days vs DMSO, FIG. 12) is reported as “increased”. For the same molecule, the “HNF4α expression in the liver (nuclear expression)” value in the series on diet-induced obese mice (120 mg/kg twice a day i.p. for 14 days vs DMSO, P=0.0042, FIG. 7) is “significantly increased; also recorded: increases nuclear expression of HNF4α”. In the series with diet-induced obese mice (120 mg/kg twice a day i.p. for 14 days, high-fat diet mice), the “weight loss, sickness, or abnormal behaviors compared to the control group” value is “None of the treated mice exhibited weight loss, sickness, or abnormal behaviors”. In addition, the “levels of alkaline phosphatase” value in the series with diet-induced obese mice (blood, 120 mg/kg twice a day i.p. for 14 days vs DMSO, FIG. 9) was “significantly reduced”. For the same molecule, the “potency in activating HNF4α relative to Alverine” value at HNF4α (FIG. 1, dose-response, insulin promoter activity) is reported as “roughly an order-of-magnitude more potent than Alverine”. For the same molecule, the “HNF4α activation / bioactivity (screening result in words)” value on HNF4α (HNF4α assay, screening and SAR statements) is “able to act as HNF4α modulators”.
